# Reference: publication PMC10901950, “Neuroprotective and Anti-inflammatory Effects of Rubiscolin-6 Analogs with Proline Surrogates in Position 2” (Neurochemical Research, 2023)
# Tests used:
# AKT = assay: Western blot, AKT phosphorylation in 6-OHDA-treated SH-SY5Y cells; format: cell-based, human; settings: peptide 10 µM, 2.5-10 min, 6-OHDA 100 µM treated cells
# Protocol: The neuroblastoma SH-SY5Y cells were grown in a 6-well plate and when 80–90% confluent treated with 6-OHDA (100 µM) for 24 h. Then cells were stimulated with peptides for 2.5, 5, 7.5 and 10 min (for AKT) or 24 h (for mTOR). When needed, a 30 min pre-incubation step with LY 294002 was included before analogs and 6-OHDA addition. Stimulation was terminated by aspiration of the medium. Cells were washed 2 times with ice-cold PBS, and then 200 µL of ice-cold lysis buffer [150 mM NaCl, 20 mM Tris–HCl, glycerol, 5 mM EDTA, 0.5 mM phenylmethylsulphonylfluoride (PMSF), 10% Triton X-100, 100 mM protease inhibitors, pH 7.4] was added. Cells were incubated on ice for 15 min. Lysates were then centrifuged at 12,000×g for 10 min at 4 °C, and the supernatants were used as the total cell lysates. The protein content in the supernatants was quantified using the Bio-Rad protein assay kit. Equal amounts of protein were separated on 10% sodium dodecyl sulfate (SDS)-polyacrylamide gels and transferred to polyvinylidene difluoride membranes from (PVDF, Millipore, Cork, Ireland). Non-specific binding was blocked with tris-buffered saline Tween-20 (TBS-T: 150 mM NaCl, 20 mM Tris–HCl, 0.1% Tween 20, pH 7.5) containing 5% nonfat milk for 2 h at room temperature. Then, the membrane was incubated overnight at 4 °C with one of the following specific primary antibodies: Vinculin (1:1000 dilution; Cell Signalling Technology, Danvers, MA, USA), p-AKT (1:1000 dilution; Cell Signalling Technology, Danvers, MA, USA), AKT (1:1000 dilution; Cell Signalling Technology, Danvers, MA, USA), p-mTOR (1:1000 dilution; Cell Signalling Technology, Danvers, MA, USA), mTOR (1:1000 dilution; Cell Signalling Technology, Danvers, MA, USA). After incubation, membranes were washed six times per 5 min with TBS-T. In the next step, membranes were incubated with HRP-conjugated secondary antibodies (1:1000 dilution; Cell Signalling Technology, Danvers, MA, USA) for 1 h. Following six washes with TBS-T, the protein bands were detected with the Clarity Western ECL reagent from Bio-Rad. The band intensity was quantified by NIH ImageJ densitometric analysis. For quantification, specific phosphorylation was calculated as the ratio of phosphorylated AKT or mTOR signals to the total Akt or mTOR signal detected. Values of unstimulated samples were set to 1.0. The original immunoblots are provided in Supplementary data.
# SH-SY5Y cells [1] = assay: Intracellular ROS production in 6-OHDA-treated SH-SY5Y cells; format: cell-based, human; settings: 6-OHDA 100 µM
# Protocol: (§1) The detection of ROS generated in injured cells was evaluated using the 5(6)-carboxy-2ʹ,7ʹ-dichlorofluorescein diacetate (carboxy-H2DCFDA) reagent (Invitrogen, Bleiswijk, Netherlands). After incubation, cells were washed with ice-cold Phosphate-Buffer Saline (PBS). Then, the carboxyl-H2DCFDA (100 µL, 20 µM) reagent was added and incubated for 1 h at 37 °C. Finally, the fluorescence intensity was measured at wavelengths of […], and ROS levels were presented in percentage of control (non-treated cells).
# SH-SY5Y cells [2] = assay: Neuroprotection in 6-OHDA-treated SH-SY5Y cells (MTT); format: cell-based, human; settings: 6-OHDA 100 µM, 24 h, vehicle 100.00 ± 4.60%
# Protocol: The neuroprotective experiments were performed in an in vitro model of a human neuroblastoma cell line (SH-SY5Y) obtained from the German Collection of Microorganisms and Cell Cultures GmbH (DSMZ) Bank (ACC 209). Cells were cultured in Dulbecco’s Modified Eagle’s Medium: Nutrient Mixture F12 (DMEM:F12) supplemented with 1% antibiotic/antimycotic (Amphotericin B, Penicillin and Streptomycin) (Biowest, Nuaillé, France) and 10% (v/v) Fetal Bovine Serum (FBS) (Biowest, Riverside, MO, USA). The anti-inflammatory experiments were performed in an in vitro model of mouse macrophage-like RAW 264.7 cells, purchased from American Type Culture Collection (ATCC, Manassas, VA, USA). Cells were maintained in DMEM medium (Gibco™, Grand Island, NY) and supplemented with 10% bovine calf serum (BCS) (Gibco™, Grand Island, NY) and 1% penicillin–streptomycin (Sigma-Aldrich, St. Louis, MO, USA). Cell cultures were kept at 37 °C in 5% CO2/humidified air.
# Cells were incubated with peptides (0.1–10 µM) for 24 h to assess their cytotoxic activity. In the neuroprotective model, SH-SY5Y cells were exposed to 6-OHDA (100 µM) in the absence/presence of peptide at non-toxic concentrations (0.1–10 µM). When needed, a 30 min pre-incubation step with β-funaltrexamine (β-FNA, µ-opioid receptor antagonist, 10 µM), naltrindole (NLT, δ-opioid receptor antagonist, 10 µM), 2’-amino-3’-methoxyflavone (PD 98059, MAPK kinase 1 (MEK 1) inhibitor, 50 µM) or 2-(4-morpholinyl)-8-phenyl-4H-1-benzopyran-4-one (LY 294002, PI3-K inhibitor, 20 µM). Stimulation was terminated by aspiration of the medium and adding 100 µL MTT (1.2 mM) per well. Cells were incubated for 1 h at 37 °C. After this time, MTT was removed, and 100 µL DMSO was added. The resulting absorbance was read in a microplate reader (Biotek, Epoch/2 microplate reader, Winooski, VT, USA) at 570 nm.
# Cell metabolic activity (cytotoxicity) was calculated as the percentage of the value obtained for cells incubated with compounds compared to control cells treated with the medium.
# SH-SY5Y cells [3] = assay: Mitochondrial membrane potential (JC-1) in 6-OHDA-treated SH-SY5Y cells; format: cell-based, human; settings: 6-OHDA 100 µM, 6 h, JC-1
# Protocol: Mitochondrial function was assessed by monitoring changes in MMP (∆Ψm) using the fluorescent probe, JC-1 fluorescence dye (5,5′,6,6′-tetrachloro-1,1′,3,3′-tetraethyl-imidacarbocyanine iodide, Molecular Probes, T3168, Eugene, Oregon, USA). The assay was performed according to the method described by Silva et al.. Briefly, SH-SY5Y cells were exposed 6 h to 6-OHDA (100 μM) in the presence or absence of peptides. After incubation, cells were washed with ice-cold PBS, and then JC-1 reagent (3 µM, 200 µL) was added for 15 min at 37 °C. Afterwards, JC-1 was removed, and cells were washed with PBS. The formation of JC-1 aggregates (490 nm of excitation and 590 nm of emission) and the monomeric form of JC-1 (490 nm of excitation and 530 nm of emission) was accompanied simultaneously in the plate reader for 30 min. Results were expressed as the ratio of the monomers/aggregates of JC-1 in the percentage of control.
# Caspase-3 = Caspase-3 activity in 6-OHDA-treated SH-SY5Y cells; format: cell-based, human; settings: STAU 1 µM, positive control
# Protocol: Caspase-3 activity was assessed using “Caspase-3 fluorometric assay” (Sigma, St. Louis, MO, USA) with minor changes adapted by Silva et al.. The cells were treated with 6-OHDA (100 µM) for 6 h in the presence or absence of peptides. After this period, the culture medium was removed, and cells were rinsed with ice-cold PBS and collected by centrifugation at 3300×g for 5 min. The pellets were resuspended in lysis buffer, incubated for about 20 min on ice and finally centrifuged at 22,500×g, 4 °C, for 20 min. Cell lysates were processed following the manufacturer’s protocol, and fluorescence was read at wavelengths of 360 nm (excitation) and 460 nm (emission). Caspase-3 activity was calculated through the curve slope and presented as Δ fluorescence (a.u.)/mg of protein/min). Staurosporine (STAU, 1 µM) was used as positive control.
# [4] = tested on: LPS-stimulated RAW 264.7 cells; assay: Intracellular ROS formation in LPS-stimulated RAW 264.7 cells; format: cell-based, mouse; settings: LPS 1 µg/mL
# Protocol: The cytotoxic and anti-inflammatory effects of peptides on RAW 264.7 cells were estimated using MTT assay. Cells were incubated with peptides (0.1–10 µM) for 24 h to assess their cytoprotective activity. In the anti-inflammatory model, RAW 264.7 cells were exposed to LPS (Millipore Sigma, Darmstadt, Germany) at 1 µg/mL in the absence/presence of peptide at non-toxic concentrations (0.1–10 µM). Then, the MTT reagent was added to wells, and cells were incubated for 1.5 h at 37 °C. After this time, MTT was removed, 100 µL DMSO was added, and the resulting absorbance was read in a microplate reader (Synergy 2 BioTek Microplate Reader, Winooski, VT, USA) at 570 nm.
# as §1
# [5] = tested on: LPS-stimulated RAW 264.7 cells; assay: Nitric oxide production in LPS-stimulated RAW 264.7 cells (Griess); format: cell-based, mouse; settings: LPS 1 µg/mL
# Protocol: The level of NO production was determined in RAW 264.7 cells. Briefly, after cells attachment, they were treated with LPS (Millipore Sigma, Darmstadt, Germany) at 1 µg/mL for 24 h, and then the peptides were added for an additional 24 h. After cells’ treatment, the medium was collected, and the accumulation of NO metabolite in the cell culture supernatant was measured using Griess reagent (1% sulfanilamide and 0.1% naphthylethylenediamine dihydrochloride; Sigma Aldrich), where 50 µL of the supernatant was mixed with 50 µL of Griess reagent (40 mg/mL) in a 96-well plate. After incubation at room temperature and darkness for 10 min, the absorbance was measured at 540 nm. Cells treated with LPS without samples were used as the positive control of the inflammatory response.
molecule,measurement,setting,value
"NCCc1cc(O)c(O)cc1O [6-OHDA, 6-hydroxydopamine, reference compound]",AKT phosphorylation,AKT,blocked
same,increase of ROS levels compared with vehicle,SH-SY5Y cells [1],around 80%
same,viable cells after 6-OHDA exposure,SH-SY5Y cells [2],48.63 ± 1.25 % of viable cells
same,increase of MMP depolarization compared to vehicle,SH-SY5Y cells [3],114%
"CN[C@@H]1C[C@H]2O[C@@](C)([C@@H]1OC)n1c3ccccc3c3c4c(c5c6ccccc6n2c5c31)C(=O)NC4 [STAU, Staurosporine, reference compound]",effect on Caspase-3 activity,Caspase-3,marked increase
"lipopolysaccharide [LPS, reference compound]",ROS level compared to the control,[4],increased almost twice
same,NO levels compared to the unstimulated control,[5],exceeded 330%
